Experimental data reported in ChEMBL document CHEMBL4342498, “Design and Discovery of an Orally Efficacious Spiroindolinone-Based Tankyrase Inhibitor for the Treatment of Colon Cancer” (J Med Chem, 2020).
The source made the active and inactive calls. The rule behind the calls is not given here.

Tests used:
[1] = Half life in Sprague-Dawley rat at 3 mg/kg, iv; type: ADME, organism-based; settings: in vivo
[2] = Toxicity in human COLO320DM cells xenografted Prkdc-NOD-SCID CB17 mouse assessed as reduction in crypt proliferation at 50 mg/kg, ip administered twice daily for 5 days followed by 2 days interval for 2 cycles; settings: in vivo
[3] = Dose normalized AUC (infinity) in Sprague-Dawley rat at 1 mg/kg, iv; type: ADME, organism-based; settings: in vivo
[4] = tested on: Mus musculus; experiment: (§1) In vivo inhibition of TNSK/TNSK2-medited WNT/beta-catenin signaling in human COLO320DM cells xenografted Prkdc-NOD-SCID CB17 mouse assessed as reduction in active-beta catenin expression in tumor nuclear extract at 10 to 20 mg/kg, po administered twice daily for 5 days followed by 2 days interval for 2 cycles measured 4 hrs post-last dose by Western blot analysis; type: functional, organism-based
[5] = tested on: COLO 320DM; experiment: Antitumor activity against human COLO320DM cells xenografted in Prkdc-NOD-SCID CB17 mouse assessed as tumor growth inhibition at 10 mg/kg, ip administered twice daily for 5 days followed by 2 days interval for 2 cycles relative to control; type: functional; settings: read-out: TGI
[6] = AUC (infinity) in ICR mouse at 20 mg/kg, po; type: ADME, organism-based; set-up: dose 20 mg/kg, time infinity, route oral; settings: in vivo
[7] = Tmax in ICR mouse at 20 mg/kg, po; type: ADME, organism-based; settings: in vivo
[8] = tested on: COLO 320DM; experiment: Antiproliferative activity against human COLO320DM cells assessed inhibition of cell growth measured after 5 days by MTT assay; type: functional; settings: 120 h
[9] = Dose normalized initial plasma concentration in Sprague-Dawley rat at 1 mg/kg, iv; type: ADME, organism-based; settings: in vivo
[10] = Toxicity in human COLO320DM cells xenografted Prkdc-NOD-SCID CB17 mouse assessed as reduction in appetite at 50 mg/kg, ip administered twice daily for 5 days followed by 2 days interval for 2 cycles; settings: in vivo
[11] = target: T1, Cytochrome P450 2B6 (Homo sapiens, UniProt P20813); experiment: Inhibition of CYP2B6 in human liver microsomes using bupropion as substrate preincubated for 5 mins followed by NADPH addition and measured for 10 to 30 mins by LC-MS/MS analysis; type: ADME
T1 sequence (P20813 whole entry): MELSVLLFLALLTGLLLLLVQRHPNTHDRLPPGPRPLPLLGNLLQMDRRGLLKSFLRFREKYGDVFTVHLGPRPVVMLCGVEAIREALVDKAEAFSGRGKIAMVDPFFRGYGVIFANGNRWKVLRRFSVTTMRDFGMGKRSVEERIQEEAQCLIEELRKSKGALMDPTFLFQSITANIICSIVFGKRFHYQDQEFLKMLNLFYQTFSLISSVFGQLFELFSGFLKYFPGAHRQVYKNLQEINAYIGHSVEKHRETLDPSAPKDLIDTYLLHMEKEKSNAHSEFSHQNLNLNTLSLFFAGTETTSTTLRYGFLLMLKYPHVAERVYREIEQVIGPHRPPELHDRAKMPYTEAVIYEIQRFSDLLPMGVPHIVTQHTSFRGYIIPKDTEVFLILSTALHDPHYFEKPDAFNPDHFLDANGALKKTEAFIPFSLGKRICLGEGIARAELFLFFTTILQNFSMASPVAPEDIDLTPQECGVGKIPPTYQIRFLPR

[12] = Total clearance in Sprague-Dawley rat at 3 mg/kg, iv; type: ADME, organism-based; settings: in vivo
[13] = Half life in ICR mouse at 20 mg/kg, ip; type: ADME, organism-based; settings: in vivo
[14] = target: T2, Protein mono-ADP-ribosyltransferase PARP10 (Homo sapiens, UniProt Q53GL7); experiment: Inhibition of human recombinant N-terminal TEV-cleavgae site-fused-FLAG/Polyhis-tagged PARP10 […] expressed in Escherichia coli assessed as reduction in auto-PARylation using histone as substrate measured after 45 mins in presence of biotinylated-NAD+ by ELISA
T2 sequence (Q53GL7 whole entry): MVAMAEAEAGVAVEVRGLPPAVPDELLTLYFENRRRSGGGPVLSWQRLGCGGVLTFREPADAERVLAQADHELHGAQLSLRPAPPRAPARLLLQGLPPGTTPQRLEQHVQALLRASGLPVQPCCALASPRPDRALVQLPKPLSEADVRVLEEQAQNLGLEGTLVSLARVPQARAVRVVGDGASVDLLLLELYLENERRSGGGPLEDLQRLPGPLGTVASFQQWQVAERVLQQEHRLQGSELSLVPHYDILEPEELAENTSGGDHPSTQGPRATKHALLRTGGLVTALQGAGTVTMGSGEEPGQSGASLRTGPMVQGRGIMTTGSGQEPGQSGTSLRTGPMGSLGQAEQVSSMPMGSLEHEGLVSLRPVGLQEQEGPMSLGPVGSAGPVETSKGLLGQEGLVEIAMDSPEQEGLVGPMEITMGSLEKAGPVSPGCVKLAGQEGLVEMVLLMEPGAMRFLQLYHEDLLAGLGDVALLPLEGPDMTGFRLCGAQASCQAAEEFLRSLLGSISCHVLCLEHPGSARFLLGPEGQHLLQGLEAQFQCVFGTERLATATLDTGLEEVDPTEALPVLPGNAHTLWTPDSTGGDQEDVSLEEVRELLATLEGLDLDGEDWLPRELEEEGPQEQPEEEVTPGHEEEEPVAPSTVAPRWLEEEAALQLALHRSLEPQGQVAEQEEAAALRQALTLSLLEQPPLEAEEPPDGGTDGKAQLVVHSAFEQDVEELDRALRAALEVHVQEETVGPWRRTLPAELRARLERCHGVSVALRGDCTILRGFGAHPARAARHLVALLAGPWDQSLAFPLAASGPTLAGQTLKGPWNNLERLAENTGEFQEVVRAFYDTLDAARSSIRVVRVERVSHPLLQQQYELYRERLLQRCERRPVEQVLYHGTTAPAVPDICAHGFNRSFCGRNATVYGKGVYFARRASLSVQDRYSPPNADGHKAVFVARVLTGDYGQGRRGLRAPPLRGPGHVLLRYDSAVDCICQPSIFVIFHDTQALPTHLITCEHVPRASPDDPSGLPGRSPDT

[15] = species: Homo sapiens
[16] = Cmax in ICR mouse at 20 mg/kg, ip; type: ADME, organism-based; set-up: dose 20 mg/kg, route intraperitoneal; settings: in vivo
[17] = Cmax in Sprague-Dawley rat at 3 mg/kg, po; type: ADME, organism-based; set-up: dose 3 mg/kg, route oral; settings: in vivo
[18] = Toxicity in human COLO320DM cells xenografted Prkdc-NOD-SCID CB17 mouse assessed as change in body weight at 10 to 20 mg/kg, ip administered twice daily for 5 days followed by 2 days interval for 2 cycles measured during compound dosing; type: organism-based; settings: in vivo
[19] = tested on: Mus musculus; experiment: as §1, with “upregulation of AXIN2” for “reduction in active-beta catenin”, “cytosolic” for “nuclear”; type: functional, organism-based
[20] = Toxicity in human COLO320DM cells xenografted Prkdc-NOD-SCID CB17 mouse assessed as epithelial degeneration at 50 mg/kg, ip administered twice daily for 5 days followed by 2 days interval for 2 cycles; settings: in vivo
[21] = target: Cytochrome P450 3A4 (Homo sapiens, UniProt P08684); experiment: Inhibition of CYP3A4 in human liver microsomes using midazolam as substrate preincubated for 5 mins followed by NADPH addition and measured for 10 to 30 mins by LC-MS/MS analysis; type: ADME
[22] = species: Homo sapiens; remark: listed apart in the source

Cytochrome P450 3A4, sequence (P08684 whole entry): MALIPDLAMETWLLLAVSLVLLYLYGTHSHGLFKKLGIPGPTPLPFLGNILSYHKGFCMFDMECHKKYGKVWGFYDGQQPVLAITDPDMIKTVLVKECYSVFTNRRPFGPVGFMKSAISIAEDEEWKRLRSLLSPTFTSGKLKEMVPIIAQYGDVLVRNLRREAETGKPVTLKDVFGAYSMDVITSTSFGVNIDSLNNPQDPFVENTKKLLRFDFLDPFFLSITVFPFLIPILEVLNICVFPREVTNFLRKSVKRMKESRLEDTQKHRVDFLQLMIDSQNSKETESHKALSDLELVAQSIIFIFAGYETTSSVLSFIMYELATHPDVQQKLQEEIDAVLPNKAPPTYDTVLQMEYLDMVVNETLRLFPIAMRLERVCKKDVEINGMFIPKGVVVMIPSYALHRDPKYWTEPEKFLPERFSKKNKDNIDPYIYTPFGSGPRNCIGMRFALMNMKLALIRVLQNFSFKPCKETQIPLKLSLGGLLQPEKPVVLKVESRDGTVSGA

C[C@@H]1CN(c2cc(F)c3c(c2)N(C)C(=O)C32CCN(c3nc4c(c(=O)[nH]3)CCCN4C)CC2)C[C@H](C)O1
half-life [1]: 3.61 h | Activity [2]: Toxic | AUC/dose [3]: 10.49 µmol·h/L | inhibition [4]: Active | inhibition in vivo at 10 mg/kg [5]: 68.8% | AUC(0-inf) [6]: 326 µM·h | Tmax [7]: 1 h | GI50 [8]: 0.035 µM | C0/dose [9]: 15.26 µM | Activity [10]: Toxic | IC50 [11]: > 10 µM | clearance [12]: 3.17 mL/min/kg | half-life [13]: 2.8 h | IC50 [14]: 8.05 µM | Ratio IC50 [15]: 223 | Cmax [16]: 75.6 µM | Cmax [17]: 12.7 µM | Activity [18]: Non-Toxic | inhibition [19]: Active | Activity [20]: Toxic | IC50 [21]: > 10 µM | Ratio IC50 [22]: 504
